From PMC4493460, “Increasing the Biological Stability Profile of a New Chemical Entity, UPEI-104, and Potential Use as a Neuroprotectant Against Reperfusion-Injury” (Brain Sciences, 2015)
“Also recorded” adds a separate entry of the source. Read-outs that look alike come from different tables or passages of the source.

Columns and labels:
[1] = Stability in human plasma (Cerep, HPLC-MS/MS); format: in vitro ADME; conditions: 1.0E−06 M, 37 °C; for half-life at 1 µM: human, plasma, 0-120 min
Procedure: The detection method was HPLC-MS/MS. At the end of incubation at each of the time points, acetonitrile was added to the incubation mixture followed by centrifugation. Samples were analyzed by HPLC-MS/MS and peak areas were recorded for each analyte. The area of precursor compound remaining after each of the time points relative to the amount remaining at time zero, expressed as percent, was calculated. […] Further experimental detail may be found in [30].
Further experimental detail may be found in [32].

in vitro = conditions: for microsomal CLint at 100 nM / half-life at 100 nM / % Compound Remaining, 1st / % Compound Remaining, 2nd / % Compound Remaining, Mean: human, microsomes; for % Compound Remaining, 1st / % Compound Remaining, 2nd / % Compound Remaining, Mean: 100 nM
Procedure: Briefly, incubation was performed at 37 °C for times between 0 and 60 min as indicated. The detection method was HPLC-MS/MS. Intrinsic clearance from microsomes (S9, cryopreserved hepatocytes, recombinant CYP, recombinant UGT) was assayed. Metabolic stability, expressed as percent of the parent compound remaining, was calculated by comparing the peak area of the compound at the time point relative to that at time 0. The half-life (T1/2) was estimated from the slope of the initial linear range of the logarithmic curve of compound remaining (%) vs. time, assuming the first-order kinetics.
A solution of each test compound (1000 ng/mL or 10 μM) was prepared as described above and infused into the TSQ Quantum source via syringe pump at a constant rate. Full scan MS analysis was conducted and total ion current chromatograms and corresponding mass spectra were generated for each test compound in both positive and negative ionization modes. The precursor ions for MS/MS were selected from either the positive or the negative mass spectrum, as a function of the respective ion abundance. In addition, product ion MS/MS analysis was performed in order to determine the appropriate selected fragmentation reaction for use in quantitative analysis. The final reaction monitoring parameters were chosen to maximize the ability to quantify the test compound when present within a complex mixture of components. Following identification of the specific SRM transition to be used for each test compound, the detection parameters were optimized using the automated protocol in the TSQ Quantum Compound Optimization Workspace software package (Thermo Scientific, MA, USA). Finally, the chromatographic conditions to be used for LC-MS analysis were identified by injection and separation of the analyte on a suitable LC column and adjustment of the gradient conditions as necessary. Further experimental detail may be found in [32].
Mobile Phase B: 6 mM ammonium formate/3 mM formic acid in water/acetonitryl (ACN; 1/9, v/v). Column: Hypersil GOLD DASH HTS, 2.1 × 20 mm, 3 micron (Thermo Scientific, MA, USA; see Table 1 for details).

[2] = system: infarct volume following tMCAO; experiment: Transient middle cerebral artery occlusion (tMCAO) ischemia-reperfusion injury, infarct volume by TTC staining; format: in vivo, Sprague-Dawley rats; conditions: rats, 30 min occlusion, 5.5 h reperfusion
Procedure: All surgical procedures described below were approved by the University of Prince Edward Island Animal Care Committee and were in compliance with the requirements of the Canadian Council on Animal Care. Our surgical protocol has been described previously. Briefly, rats were anaesthetized with sodium thiobutabarbital (Inactin, Sigma Aldrich, St. Louis, MO, USA; 100 mg/kg, intraperitoneal; i.p.) and kept warm on a heating pad maintained at 37 ± 1 °C. A venous cannula was inserted into the right femoral vein to allow for all drug injections and supplemental anaesthesia, if required. Rats were then transferred to a stereotaxic frame to allow for surgical access to the right middle cerebral artery (MCA). As detailed in our previous publication, we used a 3-point occlusion of the MCA by inserting suture under the vessel and applying pressure, by gently lifting the sutures, to occlude flow by 100% (as confirmed by laser Doppler flowmetry). The period of occlusion lasted for 30 min, followed by a 5.5 h period of reperfusion, which was accomplished by removal of these sutures (transient ischemia model, tMCAO). […] Sections were then scanned (both sides) the next day, and infarct area was measured using imaging software (Image J; Scion Corporation, Frederick, MD, USA). […] Data was analyzed by an investigator blinded to the treatment groups. […]

infarct volume, MCAO = system: infarct volume, MCAO; design: method as in PMID 1299626, PMID 19417757, PMID 21946070, PMID 19175604, PMID 17697529; conditions: cited from earlier work
global ischemia = system: global ischemia; design: method as in PMID 16650838; conditions: gerbils, given 5 min following 5 min of global ischemia, assessed four days later; cited from earlier work
[3] = system: infarct volume following tMCAO; design: method as in PMID 22277933; conditions: cited from earlier work
[4] = design: method as in PMID 22277933; conditions: animals injected i.v.; immediately, as early as 1 min after injection; previous work; cited from earlier work
NADPH oxidase = system: NADPH oxidase; design: method as in PMID 22277933, PMID 18511205; conditions: compared with apocynin alone; cited from earlier work
[5] = design: method as in PMID 21172313; conditions: cited from earlier work

## CCCOc1cc(N)ccc1C(=O)OCCN(CC)CC [Propoxycaine, reference compound]
[1]; read-out: Half-Life, 1st
  half-life at 1 µM: < 30 min
[1]; read-out: Half-Life, 2nd
  half-life at 1 µM: < 30 min
[1]; read-out: Half-Life, Mean
  half-life at 1 µM: < 30 min

## COc1cc(C(C)=O)ccc1OCCCCCC1CCSS1 (centres unmarked) [UPEI-104]
[1]; incubation 0 min
  % Compound Remaining, 1st: 100.0%
  % Compound Remaining, 2nd: 100.0%
  % Compound Remaining, Mean: 100%
[1]; incubation 30 min
  % Compound Remaining, 1st: 89.3%
  % Compound Remaining, 2nd: 112.0%
  % Compound Remaining, Mean: 101%
[1]; incubation 60 min
  % Compound Remaining, 1st: 95.5%
  % Compound Remaining, 2nd: 98.6%
  % Compound Remaining, Mean: 97%
[1]; incubation 90 min
  % Compound Remaining, 1st: 82.9%
  % Compound Remaining, 2nd: 76.4%
  % Compound Remaining, Mean: 80%
[1]; incubation 120 min
  % Compound Remaining, 1st: 77.2%
  % Compound Remaining, 2nd: 90.1%
  % Compound Remaining, Mean: 84%
[1]; read-out: Half-Life, 1st
  half-life at 1 µM: 352 min
[1]; read-out: Half-Life, 2nd
  half-life at 1 µM: 351 min
[1]; read-out: Half-Life, Mean
  half-life at 1 µM: > 120 min
In vitro
  microsomal CLint at 100 nM: 963 µL/min/mg
In vitro; 1st
  half-life at 100 nM: 7.3 min
In vitro; 2nd
  half-life at 100 nM: 7.1 min
In vitro; Mean
  half-life at 100 nM: ~7 min
[2]; 0.1 mg/kg i.v. 30 min prior to MCA occlusion, p < 0.05
  Infarct volume vs vehicle group: significantly lower
[2]; 0.001–0.1 mg/kg i.v. 30 min prior to MCA occlusion
  Effect on infarct volume as a function of dose: dose-dependent reduction in infarct volume

## COc1cc(C(C)=O)ccc1O [apocynin, 4-hydroxy-3-methoxyacetophenone]
Infarct volume, MCAO; administered during occlusion of the middle cerebral artery
  Infarct volume: attenuation of infarct volume
Infarct volume, MCAO; administration delayed following the onset of reperfusion
  Infarct volume benefit: benefits were lost
Global ischemia
  Neuronal degeneration, neuronal death and microglial activation: decreased neuronal degeneration and delayed neuronal death and microglial activation

## COc1cc(C(C)=O)ccc1OC(=O)CCCCC1CCSS1 (centres unmarked) [UPEI-100]
[1]; incubation 0 min
  % Compound Remaining, 1st: 100.0%
  % Compound Remaining, 2nd: 100.0%
  % Compound Remaining, Mean: 100%
[1]; incubation 30 min
  % Compound Remaining, 1st: 92.7%
  % Compound Remaining, 2nd: 126.6%
  % Compound Remaining, Mean: 110%
[1]; incubation 60 min
  % Compound Remaining, 1st: 100.7%
  % Compound Remaining, 2nd: 116.0%
  % Compound Remaining, Mean: 108%
[1]; incubation 90 min
  % Compound Remaining, 1st: 99.5%
  % Compound Remaining, 2nd: 111.2%
  % Compound Remaining, Mean: 105%
[1]; incubation 120 min
  % Compound Remaining, 1st: 109.9%
  % Compound Remaining, 2nd: 140.1%
  % Compound Remaining, Mean: 125%
[1]; read-out: Half-Life, 1st
  half-life at 1 µM: > 120 min
[1]; read-out: Half-Life, 2nd
  half-life at 1 µM: > 120 min
[1]; read-out: Half-Life, Mean
  half-life at 1 µM: > 120 min
In vitro
  Flags (detection of test compound in the assay matrix): not detected in the assay at any time point
  microsomal CLint at 100 nM: 6030 µL/min/mg
In vitro; 0 h
  % Compound Remaining, 1st: 100.0%
  % Compound Remaining, 2nd: 100.0%
  % Compound Remaining, Mean: 100%
In vitro; 0.25 h
  % Compound Remaining, 1st: 0.0%
  % Compound Remaining, 2nd: 0.0%
  % Compound Remaining, Mean: 0%
In vitro; 0.5 h
  % Compound Remaining, 1st: 0.0%
  % Compound Remaining, 2nd: 0.0%
  % Compound Remaining, Mean: 0%
In vitro; 0.75 h
  % Compound Remaining, 1st: 0.0%
  % Compound Remaining, 2nd: 0.0%
  % Compound Remaining, Mean: 0%
In vitro; 1 h
  % Compound Remaining, 1st: 0.0%
  % Compound Remaining, 2nd: 0.0%
  % Compound Remaining, Mean: 0%
In vitro; 1st
  half-life at 100 nM: 1.1 min
In vitro; 2nd
  half-life at 100 nM: < 15 min
In vitro; Mean
  half-life at 100 nM: ~1 min
[3]; same in vivo model of reperfusion-injury, previously observed
  Dose at which infarct volume was reduced: 0.1 mg/kg
[3]; tMCAO, previous work
  Dose for equivalent neuroprotection compared to each parent compound (lipoic acid, apocynin), fold lower: 100 fold
[4]
  Detection in tissue samples / central nervous system following intravenous injection: undetectable; also recorded: unable to detect; also recorded: could not be detected
NADPH oxidase
  Inhibition of NADPH oxidase: inhibited NADPH oxidase

## O=C(O)CCCCC1CCSS1 (stereo not drawn) [LA, α-Lipoic acid]
[5]; 5 mg/kg (most effective dose), administered just prior to the beginning of reperfusion
  Neuroprotection: did not result in significant neuroprotection
[5]; 5 mg/kg, administered prior to both occlusion and reperfusion
  Neuroprotection: produced neuroprotection

## CC(C)[N+](C)(CCOC(=O)C1c2ccccc2Oc2ccccc21)C(C)C [Propantheline, reference compound]
[1]; read-out: Half-Life, 1st
  half-life at 1 µM: 7.2 min
[1]; read-out: Half-Life, 2nd
  half-life at 1 µM: 7.2 min
[1]; read-out: Half-Life, Mean
  half-life at 1 µM: 7 min
